Measurements taken from paper PMC6268361, “Development and Validation of a Bioanalytical Method for Quantification of 2,6-Bis-(4-hydroxy-3-methoxybenzylidene)-cyclohexanone (BHMC) in Rat Plasma” (Molecules, 2012).

Tests used:
[1] = test system: mouse model of inflammatory pain; set-up: method as in PMID 12609665; conditions: cited from earlier work
lethal sepsis in mice = test system: lethal sepsis in mice; set-up: method as in PMID 21114991; conditions: compared with curcumin; cited from earlier work
[2] = Pharmacokinetic study in rats after i.v. administration (HPLC-UV/VIS of plasma, non-compartmental analysis); assay type: in vivo, male Sprague Dawley rats; conditions: i.v. 10 mg/kg
Method: Samples were analyzed with a Flexar HPLC system that consisted of a UV/VIS detector, a quaternary pump and a solvent manager with built-in degasser (PerkinElmer, Waltham, MA, USA). The separation was achieved using a Waters Symmetry C18 column (150 × 4.6 mm I.D.; 5 µm; Waters, Milford, MA, USA) protected by a Waters Symmetry C18 Guard Column (20 × 3.9 mm I.D.; 5 µm; Waters, Milford, MA, USA) at ambient temperature. The system’s pump delivered a constant flow of 1 mL/min. The volume of injection was 50 µL. BHMC and IS were eluted with a gradient method that gave an initial flow of 100% water for 1 min, changing linearly to 100% methanol in 11 min. Pure methanol was pumped continuously for 9 min. After this, 100% water was regained to stabilize the chromatographic system for 6 min. BHMC and IS were detected at a visible range of 380 nm. The analyses were repeated according to the gradient elution at every analytical cycle. The chromatograms were analyzed with Chromera Manager 2.1 (PerkinElmer, Waltham, MA, USA).
Plasma samples (200 µL) were pipetted into 1.5 mL microcentrifuge tubes. To each tube, deionized water (80 µL) was added and the tubes vortexed at medium speed for 20 s. Next, IS (62.5 µg/mL, 40 µL) was added and the mixtures vortexed again at medium speed for 20 s. A volume of 500 µL extraction reagent (95% ethyl acetate, 5% methanol) was loaded into each tube followed by a 60 s sonication and high speed vortexing for 60 s. The tubes were allowed to settle for 5 min followed by centrifugation at 13,500 g for 5 min at a temperature of 15 °C. After centrifugation the upper organic layer was carefully removed into another clean microcentrifuge tube. The organic layer was dried under a stream of nitrogen gas with a low heat setting. The dried extracted product was resuspended in 200 µL of a solution consisting of 10% methanol and 90% deionized water, sonicated for 60 s then vortexed at medium speed for 30 s. The tubes were left at room temperature in the dark for at least 10 min, followed by a repeat vortex mixing. The content was then filtered with 0.45 µm PTFE syringe filters (Titan, West Springfield, MA, USA) into a clean HPLC injection sample vial for HPLC assay.
Experiments was conducted on male Sprague Dawley rats (8–10 weeks old, 180–200 g) supplied by the Faculty of Veterinary Medicine, Universiti Putra Malaysia. All rats were housed at 23 ± 2 °C with 12 h of light/dark cycle with access to food and water ad libitum. They were acclimatized and habituated to the laboratory condition for at least one week prior to experimentation and were used only once throughout the experiments. All experimental protocols involving animals were performed in accordance with the current guidelines for the care of laboratory animals and the ethical guidelines for animal experimentation Animal Care and Use Committee (ACUC) as approved by the Animal Experimentation Ethics Committee of Universiti Putra Malaysia. Six rats were used. BHMC, solubilized in 5% ethanol (Thermo Fisher Scientific, Waltham, MA, USA), 5% Tween-20 (Sigma-Aldrich, St. Louis, MO, USA) and 90% deionized water, was injected intravenously to each rat at a dose of 10 mg/kg body weight. Blood samples (0.5 mL) were obtained from the tail vein at 5, 15, 30, 60, 120, 240, 480 and 720 min following BHMC administration. In order to prevent coagulation and enable plasma collection 1 µg of heparin sodium was added to each blood sample. Each sample was immediately centrifuged at 3,000 g for 10 min and the plasma was processed as described under sample preparation section. Pharmacokinetic parameters were estimated using non-compartmental pharmacokinetic analysis.

[3] = test system: cellular synthesis of nitric oxide and several proinflammatory cytokines; set-up: method as in PMID 19958764, PMID 21114991; conditions: through inhibition of signaling pathways incl. phosphorylation of p38 MAPK; cited from earlier work
[4] = set-up: method as in PMID 19110321, PMID 14997198, PMID 17400527, PMID 17999464; conditions: cited from earlier work
[5] = male, Sprague Dawley, rat, plasma, iv, n = 6, mean ± SD, non-compartmental analysis

Structure (SMILES)	Analgesic effect [1]	Reduction of mortality following severe sepsis (lethal sepsis in mice)	Time post-treatment up to which quantifiable in plasma of all rats ([2]; LOQ 0.02 µg/mL)	AUC(0-inf) [2, 5] [ng·h/mL]	AUC(0-t) [2, 5] [ng·h/mL]	clearance ([2]; male, Sprague Dawley, rat, plasma, iv, n = 6, mean ± SD, non-compartmental analysis, read-out: Cl (clearance)) [mL/min]	Cmax ([2]; male, Sprague Dawley, rat, plasma, iv, n = 6, mean ± SD, non-compartmental analysis, read-out: Cmax (maximum plasma concentration)) [ng/mL]	half-life ([2]; male, Sprague Dawley, rat, plasma, iv, n = 6, mean ± SD, non-compartmental analysis, read-out: T1/2 (half-life)) [h]	Vd ([2]; male, Sprague Dawley, rat, plasma, iv, n = 6, mean ± SD, non-compartmental analysis, read-out: Vd (volume of distribution)) [L]	Effect on cellular synthesis of nitric oxide and several proinflammatory cytokines [3]	Bioavailability via oral administration [4]
COc1cc(C=C2CCCC(=Cc3ccc(O)c(OC)c3)C2=O)ccc1O [BHMC, 2,6-bis-(4-hydroxy-3-methoxybenzylidene)-cyclohexanone]	potential analgesic effect	superior to curcumin in reducing mortality	at least 8 h	989	937	5.3 ± 0.7	2910 ± 150	1.5 ± 0.124	0.69 ± 0.038	significant inhibitory effects	–
COc1cc(C=CC(=O)CC(=O)C=Cc2ccc(O)c(OC)c2)ccc1O [Curcumin, 1,7-bis(4-hydroxy-3-methoxyphenyl)-1,6-heptadiene-3,5-dione]	–	–	–	–	–	–	–	–	–	–	low bioavailability
